Eight compounds from PMC6661775 (BMC Chemistry, 2019) can be followed below.

Test [1] can be described thus: Antioxidant activity by DPPH method. Conditions: DPPH radical scavenging, 517 nm; ± SEM. The protocol: This method opted for evaluation of free radical scavenging activity of DPPH was based on modified procedure described by […] et al.. The tested compounds were prepared in methanolic solution and reacted with methanolic solution of DPPH at 37 °C. The reaction mixture was prepared in 96-well plate by adding 50 μL of sample, 50 μl of methanol and 50 μl of DPPH solution prepared in 0.1 mM methanol. The mechanism of action of DPPH assay was based on the fact that DPPH radical get reduced during its reaction with an antioxidant compound and results in changes of color (from deep violet to light yellow). […] The mixture of methanol (5.0 ml) and tested compounds (0.2 ml) serve as blank. Ascorbic acid served as positive control.

The nature of test [2]: Hydrogen peroxide scavenging (H2O2) assay. As to conditions: 230 nm, pH 7.4, ± SEM, read-out: IC50 (µM) ± SEM, H2O2 method. The protocol: The solution of H2O2 (100 mM) was prepared via adding up different concentrations of synthesized derivatives ranging from 5 to 80 μg/ml to H2O2 solution (2 ml), prepared in 20 mM phosphate buffer of pH 7.4. Finally, the absorbance of H2O2 was measured at 230 nm after incubating for 10 min next to a blank reading of phosphate buffer without H2O2. For every measurement, a fresh reading of blank was taken to carry out background correction. For control sample containing H2O2 was scanned for absorbance at 230 nm. Results calculated as percentage of hydrogen peroxide inhibition was estimated by the formula [(Ab–At)/[…]] × 100, where Ab is the absorbance of the control and At is the absorbance of compounds/standard taken as L-ascorbic acid (5–80 μg/ml) are shown in Table 5.

The subject of test [3] is T1, xanthine oxidase.
T1 construct: purchased Sigma (Sigma-Aldrich) MAK078
The test is described as follows: Enzyme kinetic analysis for XO-inhibitory activity (Michaelis-Menten, Lineweaver-Burk). The format is biochemical, human. The protocol: Firstly Michaelis–Menten curve was plotted for the enzyme activity at different concentrations of RU3a3 against different concentration of substrate (xanthine) Fig. 11.
Then double reciprocal plot (Lineweaver–Burk) analysis was done in the presence (0.25, 0.5, and 1.0 µM) and absence of RU3a3 from in vitro data generated during the oxidation of xanthine in presence of xanthine oxidase (Fig. 12). The x- and y axis intercepts of the Lineweaver–Burk plot were utilized to calculate Km and Vmax values of RU3a3 at different concentrations (Table 4).

T1 sequence (P47989 whole entry): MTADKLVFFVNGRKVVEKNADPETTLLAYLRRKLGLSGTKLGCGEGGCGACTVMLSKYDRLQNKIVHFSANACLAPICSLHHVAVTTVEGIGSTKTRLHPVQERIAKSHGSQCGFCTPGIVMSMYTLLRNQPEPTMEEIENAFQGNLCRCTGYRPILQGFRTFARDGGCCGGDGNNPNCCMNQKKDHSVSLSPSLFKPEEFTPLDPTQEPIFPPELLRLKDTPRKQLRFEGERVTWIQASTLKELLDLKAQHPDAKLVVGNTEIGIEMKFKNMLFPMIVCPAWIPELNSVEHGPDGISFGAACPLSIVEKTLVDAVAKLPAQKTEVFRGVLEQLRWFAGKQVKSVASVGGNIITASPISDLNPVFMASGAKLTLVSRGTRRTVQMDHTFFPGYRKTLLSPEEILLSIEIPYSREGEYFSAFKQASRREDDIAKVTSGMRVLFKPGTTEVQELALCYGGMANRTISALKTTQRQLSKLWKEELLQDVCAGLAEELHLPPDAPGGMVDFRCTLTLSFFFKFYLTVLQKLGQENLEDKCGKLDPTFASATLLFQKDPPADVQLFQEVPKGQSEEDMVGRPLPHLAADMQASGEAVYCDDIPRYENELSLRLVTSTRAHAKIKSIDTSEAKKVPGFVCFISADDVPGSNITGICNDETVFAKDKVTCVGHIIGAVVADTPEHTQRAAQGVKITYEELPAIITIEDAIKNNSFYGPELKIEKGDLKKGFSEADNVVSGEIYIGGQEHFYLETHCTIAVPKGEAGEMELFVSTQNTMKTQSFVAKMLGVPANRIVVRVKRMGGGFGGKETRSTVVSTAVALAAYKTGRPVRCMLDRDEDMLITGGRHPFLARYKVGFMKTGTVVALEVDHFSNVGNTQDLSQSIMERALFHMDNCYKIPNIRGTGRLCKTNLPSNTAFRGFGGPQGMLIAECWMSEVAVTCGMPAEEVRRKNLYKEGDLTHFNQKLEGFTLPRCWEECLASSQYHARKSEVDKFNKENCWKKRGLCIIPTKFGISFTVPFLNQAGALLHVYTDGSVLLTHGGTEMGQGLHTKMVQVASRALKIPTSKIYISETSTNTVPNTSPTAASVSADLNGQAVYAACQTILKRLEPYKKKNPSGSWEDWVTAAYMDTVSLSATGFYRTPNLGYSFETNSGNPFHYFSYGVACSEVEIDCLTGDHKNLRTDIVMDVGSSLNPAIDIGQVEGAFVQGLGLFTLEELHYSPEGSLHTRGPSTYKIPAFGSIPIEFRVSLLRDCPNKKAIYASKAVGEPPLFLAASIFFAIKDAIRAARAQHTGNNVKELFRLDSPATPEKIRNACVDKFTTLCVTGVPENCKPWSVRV

On to `CC1OC(OCC2OC(Oc3c(-c4ccc(O)c(O)c4)oc4cc(O)cc(O)c4c3=NNC(N)=S)C(O)C(O)C2O)C(O)C(O)C1O` (centres unmarked) [RU3a1], for which the IC50 amounted to 5.02 ± 0.1 µM in test [1] and 9.13 ± 0.35 µM in test [2].
For `CC1OC(OCC2OC(Oc3c(-c4ccc(O)c(O)c4)oc4cc(O)cc(O)c4c3=NNc3ccccc3)C(O)C(O)C2O)C(O)C(O)C1O` (centres unmarked) [RU3a3], the entries for the “Vmax of xanthine oxidase” value in test [3] (Conc. of RU3a3 0.25 µM), in test [3] (Conc. of RU3a3 0.5 µM) and in test [3] (Conc. of RU3a3 1.0 µM) were 114.4 µmol/min, 108.2 µmol/min and 98.7 µmol/min, respectively. In addition, the “Manner of xanthine oxidase inhibition” value in test [3] (Lineweaver-Burk plot) was “competitive manner”. Besides, the values for the concentration for half-maximal inhibition (IC50) in test [1] and in test [2] were 11.688 ± 0.01 µM and 6.56 ± 0.1 µM, respectively.
As to `COc1cc(OC)c2c(=O)c(OC(=O)c3cccnc3)c(-c3ccc(OC)c(OC)c3)oc2c1` [RU7c1], the IC50 in test [1] stood at 6.06 ± 0.13 µM; in test [2] it was 14.7 ± 0.6 µM.
For `CC1OC(OCC2OC(Oc3c(-c4ccc(O)c(O)c4)oc4cc(O)cc(O)c4c3=NNC(=S)Nc3ccccc3)C(O)C(O)C2O)C(O)C(O)C1O` (centres unmarked) [RU3a2] the same measures were 8.728 ± 0.02 µM and 4.146 ± 0.01 µM.
Consider `CC1OC(OCC2OC(Oc3c(-c4ccc(O)c(O)c4)oc4cc(O)cc(O)c4c3=Nc3ccc([N+](=O)[O-])cc3)C(O)C(O)C2O)C(O)C(O)C1O` (centres unmarked) [RU4b2], for which the half-maximal inhibitory concentration (IC50) in test [1] stood at 8.48 ± 0.25 µM; in test [2] it was 4.378 ± 0.01 µM.
As for `COc1cc(OC)c2c(=O)c(OC(=O)c3ccccc3O)c(-c3ccc(OC)c(OC)c3)oc2c1` [RU7c2], the IC50 in test [1] was 14.669 ± 0.01 µM; in test [2], 12.1 ± 0.2 µM.
In the case of `COc1cc(OC)c2c(=O)c(OC(=O)/C=C/c3ccccc3)c(-c3ccc(OC)c(OC)c3)oc2c1` [RU7c3], the IC50 in test [1] turned out to be 7.69 ± 0.42 µM; in test [2] it was 17.9 ± 0.41 µM.
For `CC1OC(OCC2OC(Oc3c(-c4ccc(O)c(O)c4)oc4cc(O)cc(O)c4c3=Nc3ccc([N+](=O)[O-])cc3Cl)C(O)C(O)C2O)C(O)C(O)C1O` (centres unmarked) [RU4b1] the same measures were 2.65 ± 0.09 µM and 9.86 ± 0.25 µM.
